According to US20250017940A1, “SELECTIVE PEPTIDOMIMETIC MODULATORS OF CAV2.2 (N-TYPE) VOLTAGE-GATED CALCIUM CHANNELS AND USES THEREOF” (New York University, priority 2023, published 2025):

How the values were obtained:
total Ca2+ currents = assay: Whole-cell patch-clamp, total Ca2+ currents in small-to-medium DRG neurons; type: cell-based, rat; settings: 20 μM overnight; normalized to 0.1% DMSO control (1.00±0.06)
Protocol: Recordings were obtained from acutely dissociated DRG neurons as described earlier (Bellampalli et al., 2019). Patch-clamp recordings were performed at room temperature (22-24° C.). Currents were recorded using an EPC 10 Amplifier-HEKA (HEKA Elektronik, Ludwigshafen, Germany) linked to a computer with Patchmaster software. DRG neurons were incubated overnight (˜16-24 hours) with 20 μM of CBD3063.
For total calcium current (ICa^2+) recordings, the external solution consisted of the following (in mM): 110 N-methyl-D-glucamine, 10 BaCl2, 30 TEA-Cl, 10 HEPES, 10 glucose, and 0.001 TTX (pH 7.29 adjusted with TEA-OH, and mOsm/L=310). Patch pipettes were filled with an internal solution containing (in mM): 150 CsCl2, 10 HEPES, 5 Mg-ATP, and 5 BAPTA, (pH 7.2 adjusted with CsOH, and mOsm/L-305). Peak Ca^2+ current was acquired by applying 200-millisecond voltage steps from −70 to +60 mV in 10-mV increments from a holding potential of −90 mV to obtain the current-voltage (I-V) relation. To measure the different subtypes of Ca^2+ channels, DRGs were treated with a Cav inhibitor cocktail omitting the inhibitor specific to the subtype being tested (e.g., to measure Cav2.2 currents, ω-conotoxin GVIA is omitted): Nifedipine (10 μM, L-type), ω-Conotoxin-GVIA (500 nM, […]) (Feng, et al., 2001), SNX482 (200 nM, R-type) (Newcomb et al., 1998), ω-agatoxin (200 nM, P/Q-type) (Mintz et al., 1992), TTA-P2 (1 μM, T-type) (Choe et al., 2011).
Normalization of currents to each cell's capacitance (pF) was performed to allow for collection of current density data. For I-V curves, functions were fitted to data using a non-linear least squares analysis. I-V curves were fitted using double Boltzmann functions:
where x is the pre-pulse potential, V1/2 is the mid-point potential, and k is the corresponding slope factor for single Boltzmann functions. Double Boltzmann fits were used to describe the shape of the curve, not to imply the existence of separate channel populations. Numbers 1 and 2 simply indicate first and second mid-points; a along with g are fitting parameters.
Activation curves were obtained from the I-V curves by dividing the peak current at each depolarizing step by the driving force according to the equation: G=I/(Vmem-Erev), where I is the peak current, Vmem is the membrane potential and Erev is the reversal potential. The conductance (G) was normalized against the maximum conductance (Gmax). For total and the different subtypes of Ca^2+ currents, steady-state inactivation (SSI) curves were obtained by applying an H-infinity protocol that consisted of 1.5-seconds conditioning pre-pulses from −100 to +30 mV in 10-mV increments followed by a 20-millisecond test pulse to +10 mV. For Na^+ currents, SSI curves were obtained by applying an H-infinity protocol that consisted of 1-second conditioning pre-pulses from −120 to +10 mV in 10-mV increments followed by a 200-millisecond test pulse to +10 mV. Inactivation curves were obtained by dividing the peak current recorded at the test pulse by the maximum current (Imax). Activation and SSI curves were fitted with the Boltzmann equation.

[1] = Preliminary tests of analgesic properties

Row | SMILES | normalized peak total ICa2+ density (total Ca2+ currents) | analgesic properties [1]
1 | N=C(NCCCN1CCc2ccccc2C1)NCc1ccccc1 [CBD3065, N′-benzyl-N-[3-(3,4-dihydro-1H-isoquinolin-2-yl)propyl]guanidine] | 0.52±0.07 ratio to DMSO control | did not exhibit analgesic properties
2 | COc1ccccc1CNC(=N)NCCCN1Cc2ccccc2C1 [CBD3074, N-[3-(1,3-dihydroisoindol-2-yl)propyl]-N′-[(2-methoxyphenyl)methyl]guanidine] | 0.58±0.06 ratio to DMSO control | –
